# Assay results published in patent US10464890B2, “PGAM1 inhibitors and methods related thereto” (Emory University, priority 2011, dated 2019).
# Columns and labels:
# [1] = molecular target: T1, purified human PGAM1 proteins (recombinant PGAM1) (Homo sapiens, UniProt P18669); assay: In vitro PGAM1 enzyme assay (coupled enolase/PKM1/LDH, NADH oxidation); assay type: biochemical; conditions: for screening outcome (PGAM1 primary screen, enolase secondary screen): library screen with coupled PGAM1 and enolase assays; for relative PGAM1 inhibitory potency in vitro: purified recombinant PGAM1, comparison among alizarin, alizarin Red S and PGMI-004A
# T1 construct: (His)6; made in house; host or cells: E. coli BL21(DE3)pLysS (pET53 vector)
# T1 sequence (P18669 whole entry): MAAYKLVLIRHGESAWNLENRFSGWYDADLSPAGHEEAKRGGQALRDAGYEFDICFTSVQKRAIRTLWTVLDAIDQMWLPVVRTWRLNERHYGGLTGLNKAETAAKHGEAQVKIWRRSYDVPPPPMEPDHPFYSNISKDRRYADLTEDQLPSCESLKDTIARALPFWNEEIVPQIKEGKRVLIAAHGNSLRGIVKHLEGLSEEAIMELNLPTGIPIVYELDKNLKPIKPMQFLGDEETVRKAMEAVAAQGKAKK
# Procedure: An in vitro PGAM1 assay was performed as primary screening. PGAM1 enzyme mix was prepared containing 100 mM Tris-HCl, 100 mM KCl, 5 mM MgCl2, 1 mM ADP, 0.2 mM NADH, 5 mg/ml recombinant PGAM1, 0.5 units/ml enolase, 0.5 units/ml recombinant pyruvate kinase M1, and 0.1 units/ml recombinant LDH. 3-PG was added last at the final concentration of 2 mM to initiate the reaction. […] An in vitro enolase assay as secondary screening was also performed. Enolase enzyme mix was prepared containing 100 mM Tris-HCl, 100 mM KCl, 5 mM MgCl2, 1 mM ADP, 0.2 mM NADH, 0.5 units/ml enolase, 0.5 units/ml recombinant pyruvate kinase M1, and 0.1 units/ml recombinant LDH. 2-PG was added last at the final concentration of 2 mM to initiate the reaction. […] Assay was carried out in Tris-HCl buffer (10 mM Tris, pH 7.4, 100 mM NaCl) containing 5% DMSO.
# PGAM1 activity was measured by multiple enzymes coupled assay. PGAM1 enzyme mix containing 100 mM Tris-HCl, 100 mM KCl, 5 mM MgCl2, 1 mM ADP, 0.2 mM NADH, 5 mg/ml recombinant PGAM1, 0.5 units/ml enolase, 0.5 units/ml recombinant pyruvate kinase M1, and 0.1 units/ml recombinant LDH was prepared. 3-PG was added last at a final concentration of 2 mM to initiate the reaction.
# [2] = molecular target: T2, 6PGD (Homo sapiens, UniProt P52209); assay type: binding
# T2 sequence (P52209 1-483): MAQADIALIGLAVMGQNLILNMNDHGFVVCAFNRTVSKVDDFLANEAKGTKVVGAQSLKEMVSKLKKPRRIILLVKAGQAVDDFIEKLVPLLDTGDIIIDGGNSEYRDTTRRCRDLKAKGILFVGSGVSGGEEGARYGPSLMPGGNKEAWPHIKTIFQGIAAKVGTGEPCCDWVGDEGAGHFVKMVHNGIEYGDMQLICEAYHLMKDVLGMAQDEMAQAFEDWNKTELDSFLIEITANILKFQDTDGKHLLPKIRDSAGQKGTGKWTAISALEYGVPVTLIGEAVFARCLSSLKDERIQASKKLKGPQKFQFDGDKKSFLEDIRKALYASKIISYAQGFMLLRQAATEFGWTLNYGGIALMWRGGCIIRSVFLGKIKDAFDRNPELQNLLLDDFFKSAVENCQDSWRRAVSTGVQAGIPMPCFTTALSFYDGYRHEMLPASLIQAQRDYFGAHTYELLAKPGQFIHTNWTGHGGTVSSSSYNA
# Procedure: In brief, thermal shift assay of compound-protein interaction was performed in 384-well PCR plates with various compound concentrations and 200 μg/ml protein in a buffer solution (20 mM Tris-HCl, 100 mM NaCl, pH 7.4). SYPRO orange was used as a dye to monitor the fluorescence change at 610 nm. Small molecules were dissolved in DMSO and added to protein solution. Final DMSO concentration of solution is 1%. Dissociation constants (Kds) for protein-ligand interaction were calculated using the method as described.
# The fluorescence intensity data were fitted to Eq. (1) to obtain ΔHu, ΔCpu, and Tm by nonlinear regression using the program Prism:
# The thermal unfolding parameters for 6PGD and PGAM1 alone were determined from 4 control wells, each containing 0.2 mg/mL protein.
# [3] = molecular target: T3, 6PGD (H1299 cell lysates or recombinant 6PGD) (Homo sapiens, UniProt P52209); assay: 6PGD enzyme assay; assay type: biochemical
# T3 construct: endogenous in cells; host or cells: H1299 cell lysates; part of the results with recombinant 6PGD of unstated origin
# T3 sequence (P52209 1-483): T2 sequence (P52209 1-483)
# Procedure: (§1) G6PD activity was determined by the NADPH production rate from G6PD and 6PGD, then subtracting that of 6PGD, since a product of G6PD, 6-phosphogluconolactone, is rapidly hydrolyzed to a substrate of 6PGD, 6-phosphogluconate, in cells. To obtain the combined dehydrogenase activity, substrates for both dehydrogenase enzymes were added to a cuvette. In another cuvette, substrates for the second enzyme, 6PGD, were added to obtain the activity of this enzyme. Substrate concentrations were as follows: 0.2 mM glucose 6-phosphate, 0.2 mM 6-phosphogluconate, and 0.1 mM NADP^+. 10 μg of cell lysates or 1 μg of recombinant protein were added to a cuvette containing buffer (50 mM Tris, 1 mM MgCl2, pH 8.1) and then the reaction was initiated by NADP^+. The increase of absorbance at 341 nm was measured by a DU800 spectrophotometer (Beckman).
# [4] = molecular target: T4, G6PD (H1299 cell lysates or rG6PD) (Homo sapiens, UniProt P11413); assay: G6PD enzyme assay; assay type: biochemical; conditions: increasing concentrations of 3-PG
# T4 construct: endogenous in cells; host or cells: H1299 cell lysates; also recombinant rG6PD of unstated origin
# T4 sequence (P11413 whole entry): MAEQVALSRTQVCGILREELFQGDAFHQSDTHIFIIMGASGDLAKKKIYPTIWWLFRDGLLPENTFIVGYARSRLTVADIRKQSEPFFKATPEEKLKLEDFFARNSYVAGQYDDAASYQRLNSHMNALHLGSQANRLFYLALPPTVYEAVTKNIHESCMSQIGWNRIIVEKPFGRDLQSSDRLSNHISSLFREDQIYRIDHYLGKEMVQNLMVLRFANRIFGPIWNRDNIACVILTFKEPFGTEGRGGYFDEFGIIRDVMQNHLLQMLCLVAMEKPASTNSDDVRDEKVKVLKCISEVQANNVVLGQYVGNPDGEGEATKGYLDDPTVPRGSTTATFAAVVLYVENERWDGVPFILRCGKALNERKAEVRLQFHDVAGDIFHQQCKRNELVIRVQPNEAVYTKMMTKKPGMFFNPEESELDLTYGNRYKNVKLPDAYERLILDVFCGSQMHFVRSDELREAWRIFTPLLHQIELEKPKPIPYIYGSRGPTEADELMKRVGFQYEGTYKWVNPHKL
# Procedure: as §1
# [5] = molecular target: T5, PHGDH (PGAM1 knockdown cell lysates or recombinant PHGDH) (Homo sapiens, UniProt O43175); assay: PHGDH enzyme assay; assay type: biochemical
# T5 construct: endogenous in cells; also recombinant rPHGDH of unstated origin
# T5 sequence (O43175 1-533): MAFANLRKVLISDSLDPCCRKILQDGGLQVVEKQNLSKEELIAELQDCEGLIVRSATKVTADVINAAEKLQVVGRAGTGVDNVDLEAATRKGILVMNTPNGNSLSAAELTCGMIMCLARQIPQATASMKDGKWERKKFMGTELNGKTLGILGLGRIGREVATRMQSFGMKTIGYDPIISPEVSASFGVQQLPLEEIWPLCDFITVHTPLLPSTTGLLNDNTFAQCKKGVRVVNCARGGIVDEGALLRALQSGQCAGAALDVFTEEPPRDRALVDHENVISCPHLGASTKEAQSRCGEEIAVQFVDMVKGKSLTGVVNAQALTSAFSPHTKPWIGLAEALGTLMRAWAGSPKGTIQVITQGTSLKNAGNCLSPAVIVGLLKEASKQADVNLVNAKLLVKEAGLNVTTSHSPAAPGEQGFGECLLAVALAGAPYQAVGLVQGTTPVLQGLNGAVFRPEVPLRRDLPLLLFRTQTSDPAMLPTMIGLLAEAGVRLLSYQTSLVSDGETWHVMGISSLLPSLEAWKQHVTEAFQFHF
# Procedure: PHGDH activity was spectrophotometrically measured as described previously. PHGDH enzyme buffer containing 200 mM Tris-HCl (pH8.1), 400 mM KCl, 0.6 mM NAD, 2 mM GSH, 10 mM EDTA was mixed with cell lysates or recombinant PHGDH protein. The reaction was initiated by the addition of 3-PG to a final concentration of 10 mM and followed by measuring the increase in absorbance at 340 nm over a 10 min period.
# [6] = test system: H1299 cells; assay: Cell proliferation assay, H1299; assay type: cell-based, human; conditions: H1299 cells
# Procedure: (§2) For leukemia cell proliferation assay, 10×10^4 cells were seeded in non-tissue culture coated 6-well plate and incubated at 37° C. for indicated times. Cell numbers were counted by trypan blue exclusion under a microscope (×40) at indicated times and the percentage of cell proliferation was determined by comparing PGAM1 knockdown cells to pLKO.1 vector expressing cells. […] Cell viability was determined by counting drug-treated cells compared to DMSO-treated control cells with trypan blue exclusion under a microscope (×40) and by using CellTiter96Aqueous One solution proliferation kit (Promega). For adherent cell proliferation assay such as H1299 and MDA-MB231 cells, 5×10^4 cells were seeded in 6-well plate 24 h before the assay starts and were cultured at 37° C. 24 h after seeding, cells were treated with 5 μM Methyl-2PG and incubated at 37° C. for indicated times. Cell proliferation was determined by the increase in cell number indicated times after the treatment starts compared to that at the treatment starts for each cell line (T=0). Cell numbers were counted by trypan blue exclusion under a microscope (×40). For adherent cell viability assay with trypan blue exclusion, 5×10^4 cells were seeded in 6-well plate 24 h before the assay starts and were cultured at 37° C. […] Cell viability was determined by counting drug-treated cells compared to DMSO-treated control cells with trypan blue exclusion under a microscope (×40). For MTT cell viability assay of adherent cells, 5×10^3 cells were seeded in 96-well plate 24 h before the assay starts and were cultured at 37° C. […] Cell viability was determined by using CellTiter96Aqueous One solution proliferation kit (Promega).
# [7] = test system: human leukemia KG1a cells; assay: Cell proliferation/viability assay, KG1a; assay type: cell-based; conditions: increasing concentrations (72h)
# Procedure: as §2, with “(×40).” for “(×40). For adherent cell viability assay with trypan blue exclusion, 5×10^4 cells were seeded in 6-well plate 24 h before the assay starts and were cultured at 37° C.”, “(×40).” for “(×40). For MTT cell viability assay of adherent cells, 5×10^3 cells were seeded in 96-well plate 24 h before the assay starts and were cultured at 37° C.”
# [8] = molecular target: PGAM1 (Homo sapiens, UniProt P18669); conditions: cited from earlier work
# Chain of PGAM1 (P18669 whole entry): as the sequence (P18669 whole entry) above
# [9] = test system: Y26 phosphorylation of PGAM1; assay: PGAM1 Y26 phosphorylation in human cancer cell lines; assay type: cell-based; conditions: pertinent human cancer cell lines (KG1a, HEL)
smiles,measurement,setting,value
O=CC=Cc1ccc(O)cc1 [p-hydroxycinnamaldehyde],"screening outcome (PGAM1 primary screen, enolase secondary screen)",[1],identified as PGAM1 inhibitors
"O=C(O)[C@H](O)COP(=O)(O)O [3-PG, 3-phosphoglycerate]",6PGD melting temperature (Tm),"[2]; increasing concentrations, 100 μM to 25 mM",raises 6PGD melting temperature (Tm) in a dose-dependent manner
same,Kd,[2]; read-out: Kd for interaction with 6PGD,460 ± 40 µM
same,Ki,"[3]; Dixon plot, read-out: inhibition constant (Ki) for 6PGD",489 ± 13 µM
same,mode of 6PGD inhibition,"[3]; Lineweaver-Burk plot, ~250 μM 3-PG, ~35 μM 6-PG",competitive inhibitor
same,6PGD enzyme activity,"[3]; ~60 μM 3-PG (physiological), H1299 cell lysates or recombinant 6PGD",do not significantly affect 6PGD enzyme activity
same,6PGD enzyme activity,"[3]; ~250 μM 3-PG, H1299 cell lysates or recombinant 6PGD",decreased enzyme activity of 6PGD
same,G6PD activity,[4],did not significantly affect G6PD activity
"O=C(O)[C@@H](CO)OP(=O)(O)O [2-PG, 2-phosphoglycerate]",enzyme activity of recombinant PHGDH (rPHGDH),[5]; increasing concentrations of 2-PG,increased enzyme activity of recombinant PHGDH
same,PHGDH activity,[5]; ~15 μM 2-PG,did not significantly affect PHGDH activity
same,PHGDH enzyme activity,"[5]; ~45 μM or ~60 μM 2-PG, H1299 PGAM1 knockdown cell lysates",higher PHGDH enzyme activity
same,6PGD enzyme activity,"[3]; 2-PG treatment, H1299 cell lysates or r6PGD",did not affect 6PGD enzyme activity
"O=C1c2ccccc2C(=O)c2c1ccc(O)c2O [alizarin, 1,2-Dihydroxyanthraquinone]","screening outcome (PGAM1 primary screen, enolase secondary screen)",[1],identified as PGAM1 inhibitors
same,cell proliferation,[6],decreased proliferation
same,cell proliferation,[7],decreased proliferation
C#CCCCC(=O)OC(C)(C)C1CCC2(CO2)C(OC(=O)NC(Cc2c[nH]c3ccccc23)C(=O)OCc2ccccc2)C1 (stereo not shown) [MJE3],PGAM1 activity (reported),"[8]; Evans et al., 2007, 2005",specifically inhibits PGAM1 activity exclusively in intact cells
same,cancer cell proliferation (reported),[8],attenuates cancer cell proliferation
N#C/C(=C/c1ccc(O)c(O)c1)C(=O)NCc1ccccc1 [AG490],Y26 phosphorylation of PGAM1,[9],decreased Y26 phosphorylation of PGAM1
"O=C1c2ccccc2C(=O)c2c1cc(S(=O)(=O)O)c(O)c2O [alizarin Red S, 3,4-dihydroxy-9,10-dioxo-9,10-dihydroanthracene-2-sulfonic acid]",relative PGAM1 inhibitory potency in vitro,[1],more potent PGAM1 inhibitory potential compared to alizarin
same,relative PGAM1 inhibitory potency in vitro,[1]; listed as Alizarin Red S,more potent PGAM1 inhibitor
CN1CCN(c2ccc3nc(-c4c(N)c5c(F)cccc5[nH]c4=O)[nH]c3c2)CC1 [TKI258],Y26 phosphorylation of PGAM1,[9],decreased Y26 phosphorylation of PGAM1
Oc1c(Cl)cc(Cl)c(Cl)c1Cc1c(O)c(Cl)cc(Cl)c1Cl [hexachlorophene],"screening outcome (PGAM1 primary screen, enolase secondary screen)",[1],identified as PGAM1 inhibitors
